Legend:
[1] = test system: Wnt reporter gene TOPFlash; experiment: Wnt reporter gene (TOPFlash) assay in HEK293 cells; assay type: cell-based; details: for Wnt reporter gene activity: DKK2 5 nM, Wnt3a 2 nM, CHIR 1 μM, 6 hrs (FIG. 10D)
Description: The Stat5 reporter assays were done in HEK293T cells for activated JAK1-induced activity or in those stably expressing JAK3, IL2/15Rβ and the common receptor γ subunit for IL15 induced activity. Cells were seeded at 8×10^4 cells per well in 48 well plate. The next day, cells were transfected by Lipofectamine 2000 (Invitrogen) with the pGL4.52-STAT5-Luciferase (Promega) and tagRFP (internal control) plasmids together with other plasmids expressing genes of interest. The total amount of plasmid was kept at 125 ng per well. The cells were added 24 hours after transfection with IL15/IL15Rα-Fc complex or mock. Six hours later, the cells were lysed and subjected to RFP fluorescence and luciferase luminescence measurement using an Envision Multilabel plate reader. The reporter gene activity is shown after being normalized against RFP readings. The LEF reporter assay was carried out in HEK293 cells that were transfected with the TOPFlash and GFP plasmids. The rest is the same as above. The reporter gene activity is shown after being normalized against GFP readings.
A functional mouse monoclonal anti-DKK2 antibody (5F8) was developed to specifically target and neutralize DKK2, but to not cross react with DKK-1. […] It has been shown that DKK2 as well as other DKK family proteins, inhibit canonical Wnt signaling by binding to Wnt co-receptor LRP 5/6 with high affinity and competing with Wnt molecules for receptor binding (MacDonald, B., et al., Dev Cell, 2009. 17(1): p. 9-26; Bao, J., et al., Sci Signal, 2012. 5(224): pe22). To determine if 5F8 diminished DKK2 inhibition of Wnt signaling, a Wnt reporter gene assay was used to measure Wnt activity. HEK293 cells were transfected with Wnt reporter gene TOPFlash and Wnt reporter activity was examined.

primary mouse NK cells = experiment: IL-15-cultured primary mouse NK cells (flow cytometry, Western); assay type: cell-based; details: for granzyme B in primary NK cells: WNT3a 2 nM, CHIR 1 μM
Description: Cells in single cell suspension were fixed with 2% PFA (Santa-Cruz sc-281692). After washing with a Flow Cytometry Staining Buffer (eBioscience 00-4222-26), cells were stained with antibodies for cell surface markers for 1 hour on ice in the dark. For staining of intracellular proteins, the cells were washed and resuspended in the Permeabilization Buffer (BD 554723) and stained by antibodies in the Permeabilization Buffer for 1 hour on ice in the dark. The cells were then pelleted and resuspended in the Flow Cytometry Staining Buffer for flow cytometry analysis.
Mouse primary NK and CD8+ T cells were isolated from the spleens by using the NK cell and CD8+ T cell isolation kits according to the manufacturer's instructions (Miltenyi Biotec #130-090-864 and #130-104-075), respectively. Primary NK cells were cultured in RPMI-1640 (Gibco, 11875-093) supplemented with 10% FBS, penicillin (100 U/ml), streptomycin (100 μg/ml), 2-mercaptoethanol (500 μM) and HEPES (10 mM) at 37° C. supplemented with 5% CO2 in the presence of recombinant murine IL-15 (50 ng/ml) for 24 hours before treatment with DKK2, CHIR99021, or WNT3A. CD8+ T cells were cultured in the same culture medium and condition as NK cells, but supplemented with IL-15 (200 ng/ml) and IL-15 Rα (1 μg/ml recombinant Mouse IL-15 receptor alpha Fc chimera Protein from R&D) for 96 hours before DKK2 treatment. Mouse primary intraepithelial lymphocytes (IELs) were prepared as described in (Little et al., The Journal of Immunology 175, 6713-6722 (2005) and Li et al. Infect Immun 80, 565-574 (2012)). In brief, the small intestine was everted, divided into four pieces, and washed twice in phosphate-buffered saline (PBS) containing 100 U/ml penicillin/streptomycin The specimens were then incubated with stirring at 37° C. in prewarmed Ca2+ and Mg2+-free Hanks' solution containing 100 U/ml penicillin-streptomycin, 5% fetal calf serum (FCS), 2 mM dithiothreitol (DTT), and 5 mM EDTA for 30 min, followed by vigorous shaking for 30 s. The supernatants were passed over two nylon wool columns to remove undigested tissue debris. The lymphocytes obtained were pooled and enriched on a discontinuous (40% and 70%) Percoll density gradient. Cells at the interface between the 40% and […], fractions (IELs) were collected for treatment with IL-15 (200 ng/ml) and DKK2 (200 ng/ml), followed by flow analysis.

Molecule | Wnt reporter gene activity [1] | granzyme B in primary NK cells (primary mouse NK cells; 24 hours) | Wnt reporter activity ([1]; HEK293, TOPFlash, conditioned medium (FIG. 1E)) | β-catenin accumulation in LRP5-deficient NK cells (primary mouse NK cells; LRP5-deficiency) | β-catenin accumulation in LRP6-deficient NK cells (primary mouse NK cells; LRP6-deficient) | β-catenin accumulation in primary NK cells (primary mouse NK cells; WNT3A 5 nM, 24 hours, Western)
Cc1c[nH]c(-c2cnc(NCCNc3ccc(C#N)cn3)nc2-c2ccc(Cl)cc2Cl)n1 [CHIR99021, reference compound] | strong effect on Wnt reporter gene activity | no significant effect on granzyme B |  |  |  | 
WNT3A | a strong increase in the reporter gene activity | no significant effect on granzyme B expression | increased Wnt reporter activity | did not affect β-catenin accumulation | did not induce β-catenin accumulation | induced β-catenin accumulation
